In patent publication US8263060B2, “Fast degrading polymers” (Rutgers, The State University of New Jersey, priority 2005, dated 2012):
In brackets after ≈: the same amount, converted by molar mass.

Test: Solubility in PBS degradation media
Assay type: physicochemical
Settings: aqueous buffer

- solubility: 56 mg/mL (≈ 283 mM)
Compound: COc1cc(C(=O)O)cc(OC)c1O [syringic acid]
